{"source": "patent US10064876B2", "about": "“Bile acid receptor agonism for treating addiction” (Vanderbilt University, priority 2015, dated 2018)", "key": {"Lipoprotein lipase (Lpl)": {"system": "Lipoprotein lipase (Lpl)", "experiment": "hepatic gene expression by RNA-seq", "type": "in vivo, mouse", "conditions": "liver", "procedure": "The transcriptional sequencing was implemented with modifications of the standard Illumina methods (Bentley, D. R. et al. Nature 456, 53-59 (2008)). Sequencing reactions were performed using the Illumina HiSeq (v3 chemistry). Initial QC quantification of the extracted total RNA was done by using Qubit Fluorometer (Invitrogen). Agilent 2100 Bioanalyzer was used to check the quality of the extracted RNA from both the samples. About 30 ng of total RNA was amplified using the NuGEN Technologies Ovation RNA amplification kit optimized for RNA sequencing. The output is double-stranded complementary DNA (cDNA) that was sheared using the Covaris instrument to an average insert size of 300 bp. The sheared DNA entered the standard Illumina TruSeq library preparation protocol at the standard end-repair step. […] Following LM-PCR, the samples were purified and assessed for quality using the Agilent Bioanalyzer. Final quantitation was performed using the KAPA Biosystems Kapa Library Quant kit. […]\nMultiple stages of quality control (QC) on sequencing data was carried out. […] Raw data were aligned with TopHat 2 against mouse MM10 genome, and read count data were obtained using HTSeq, DESeq (Anders, S. & Huber, W. Genome Biol. 11, R106 (2010)), edgeR (Robinson, M. D., et al. Bioinformatics 26, 139-140 (2010)) and baySeq (Hardcastle, T. J. & Kelly, K. A. BMC Bioinformatics 11, 422 (2010)). […]"}, "C57BL/6J mice [1]": {"system": "C57BL/6J mice", "experiment": "cocaine-induced locomotion in OCA-treated mice", "type": "in vivo, mouse", "conditions": "OCA 10 mg/kg orally, chronic, vs vehicle", "procedure": "CPP was performed as previously described, with modifications (Graham D L, et al. (2013). Mol Psychiatry. 18(9):961-962). Briefly, mice were weighed and then acclimated to the testing room for at least 20 minutes prior to testing each day. During the first phase (pre-conditioning, day 1), mice were placed on the grid floor side of a two chamber apparatus. For 30 min, the mice had free access to both sides of the apparatus, which each contained their own distinct visual and tactile cues. During the second phase (conditioning, days 2-9), on alternate days mice were restricted to one side or the other of the apparatus for 30 min by use of a dividing door. Just prior to being placed in the chamber, each mouse was given an injection of either cocaine (20 mg/kg, i.p.) or saline (i.p.). […] Only the first 20 minutes of pre-conditioning and post-conditioning was used in the calculation of % CPP. […] Following 20 minutes of acclimation to the testing room, mice were initially placed in open field chambers for 60 min and ambulatory distance was recorded. […] Finally, mice were removed again and injected with cocaine (20 mg/kg, i.p.) before being placed back in the chamber for an additional 120 minutes. […] Jellies were composed of gelatin (10% w/v), sucralose (18.5% w/v), artificial strawberry flavoring (8% v/v); beta cyclodextrin (2% w/v) in water. […]"}, "[2]": {"conditions": "phase III clinical trial, hepatic steatosis; cited from earlier work"}, "C57BL/6J mice [3]": {"system": "C57BL/6J mice", "experiment": "cocaine conditioned place preference (CPP) in mice under chronic OCA", "type": "in vivo, mouse", "conditions": "OCA 10 mg/kg orally six days a week for four weeks vs vehicle, CPP started after 2 weeks, cocaine 20 mg/kg i.p.", "procedure": "CPP was performed as previously described, with modifications (Graham D L, et al. (2013). Mol Psychiatry. 18(9):961-962). Briefly, mice were weighed and then acclimated to the testing room for at least 20 minutes prior to testing each day. During the first phase (pre-conditioning, day 1), mice were placed on the grid floor side of a two chamber apparatus. For 30 min, the mice had free access to both sides of the apparatus, which each contained their own distinct visual and tactile cues. During the second phase (conditioning, days 2-9), on alternate days mice were restricted to one side or the other of the apparatus for 30 min by use of a dividing door. […] During this time, the mouse's locomotor activity was measured by infrared sensors and used to determine cocaine-induced locomotor sensitization. […] Thus mice were given full access to both compartments and their time spent on each side was measured. % CPP was calculated as the time spent on the cocaine-paired side between post-conditioning minus the time spent on the cocaine-paired side during pre-conditioning divided by the time spent on the saline-paired side during pre-conditioning. […] Locomotor sensitization to cocaine was determined by the ambulatory distance on days when mice received cocaine during the conditioning phase of CPP. […]"}, "[4]": {"experiment": "body weight during chronic OCA treatment", "type": "in vivo, mouse", "conditions": "OCA 10 mg/kg orally vs vehicle, throughout the 4-week study", "text": "Jellies were composed of gelatin (10% w/v), sucralose (18.5% w/v), artificial strawberry flavoring (8% v/v); beta cyclodextrin (2% w/v) in water. […] Jellies containing vehicle contained the same amount of beta cyclodextrin. Mice were given jellies by voluntary oral administration six days per week for four weeks. They were given the jellies between 3 pm and 6 pm by placing each mouse into an open field chamber containing the jelly. To ensure that mice consumed the jellies consistently, all mice were initially trained to eat jellies without drug for 5 days prior to drug/vehicle jelly administration. Mice in this group underwent behavioral testing for cocaine conditioned place preference after 2 weeks of chronic drug administration. During this time, drug administrations were continued until sacrifice."}, "[5]": {"system": "AMPA receptor-mediated excitatory post-synaptic currents (EPSCs) in NAc medium spiny neurons", "experiment": "whole-cell electrophysiology, EPSC amplitude in ex vivo brain slices", "type": "cell-based, mouse", "conditions": "10 μM OCA (FIG. 29B legend), perfused 10 min, holding at −70 mV, 50 μM picrotoxin", "procedure": "Ex vivo mouse sagittal brain slices were prepared as previously described (Grueter, B. A., et al. Nat Neurosci 13:1519-1525 (2010)). Briefly, mice were acutely anesthetized using isoflurane and sacrificed by rapid decapitation. Brains were submerged in ice-cold sucrose dissecting solution (80 mM NaCl, 2.5 mM KCl, 7 mM MgCl2, 0.5 mM CaCl2, 1.25 mM NaH2PO4, 25 mM NaHCO3, 75 mM sucrose, and 25 mM glucose) and 250 μm thick slices were cut using the Leica 200VT Vibratome. Slices were allowed to recover for 10-15 min at 35° C. in an N-methyl D-glucamine (NMDG) based recovery solution (2.5 mM KCl, 20 mM HEPES, 1.2 mM NaH2PO4, 25 mM glucose, 93 mM NMDG, 30 mM NaHCO3, 5 mM sodium ascorbate, 3 mM sodium pyruvate, 10 mM MgSO4, and 0.5 mM CaCl2) before being transferred to a room temperature ACSF holding chamber for one hour prior to use. ASCF used for holding chamber and recordings contained 120 mM NaCl, 2.5 mM KCL, 1.5 mM MgCl2, 2.5 mM CaCl2, 1 mM NaH2PO4, 25 mM NaHCO3, and 10 mM glucose. […] Evoked responses were elicited by electrical stimulation via the Iso-flex stimulation isolator and recorded using the Axopatch Multiclamp 700B amplifier and Axon Digidata 1550 low-noise data acquisition digitizer. […] Peak EPSC amplitude was measured for the duration of the experiment and normalized to the first 10 min. […]"}, "FXR": {"system": "FXR", "conditions": "Sayin 2013; Li 2013; cited from earlier work"}}, "note": "“Also recorded” adds a separate entry of the source.", "data": [{"smiles": "COC(=O)/C=C/c1cccc(N(Cc2ccc(-c3ccc(N(C)C)cc3)cc2)C(=O)C2CCCCC2)c1", "note": "[fexaramine]", "values": [{"measurement": "Lpl hepatic expression, increase relative to DIO controls", "setting": "Lipoprotein lipase (Lpl)", "value": 2.4, "unit": "fold"}]}, {"smiles": "CC[C@H]1[C@@H](O)[C@@H]2[C@H](CC[C@]3(C)[C@@H]([C@H](C)CCC(=O)O)CC[C@@H]23)[C@@]2(C)CC[C@@H](O)C[C@@H]12", "note": "[OCA, (4R)-4-[(3R,5S,6R,7R,8S,9S,10S,13R,14S,17R)-6-Ethyl-3,7-dihydroxy-10,13-dimethyl-2,3,4,5,6,7,8,9,11,12,14,15,16,17-tetradecahydro-1H-cyclopenta[a]phenanthren-17-yl]pentanoic acid]", "values": [{"measurement": "cocaine-induced locomotion", "setting": "C57BL/6J mice [1]", "value": "impaired"}, {"measurement": "clinical efficacy", "setting": "[2]", "value": "clinical efficacy"}, {"measurement": "safety profile", "setting": "[2]", "value": "excellent safety profile"}, {"measurement": "cocaine CPP (preference for the cocaine-paired chamber, % CPP)", "setting": "C57BL/6J mice [3]", "value": "decreased; also recorded: reduced preference"}, {"measurement": "cocaine CPP (preference for the cocaine-paired chamber, % CPP)", "setting": "C57BL/6J mice [3]; listed as 6-ECDCA", "value": "significantly reduced"}, {"measurement": "body weight", "setting": "[4]", "value": "No differences"}, {"measurement": "EPSC amplitude in NAc medium spiny neurons", "setting": "[5]", "value": "robust depression; also recorded: reduced"}]}, {"smiles": "C[C@H](CCC(=O)NCCS(=O)(=O)O)[C@H]1CC[C@H]2[C@@H]3[C@@H](O)[C@@H](O)[C@@H]4C[C@H](O)CC[C@]4(C)[C@H]3CC[C@]12C", "note": "[TβMCA, 5β-cholanic acid-3α,6β,7β-triol-N-[2-sulphoethyl]-amide]", "values": [{"measurement": "FXR antagonist activity", "setting": "FXR", "value": "potent FXR antagonist"}]}]}
